# Measured values: US20220127297A1, “Novel Antibacterial 3"-Derivatives Of 4,6-Disubstituted 2,5-Dideoxystreptamine Aminoglycoside Antibiotics” (AGILeBiotics B.V., priority 2018, published 2022)
# Test system: A. baumannii DSM 105126
# Experiment: MIC 50, broth micro-dilution, DSM strains
# Format: cell-based, Acinetobacter baumannii
# Settings: not given
# From the text: 3.2 Against Selected Bacteria of the ESKAPE Panel and Enterococcus faecalis (DSM Strains)
# Tested reference compounds. Amikacin sulfate (Cat. No. 01693, Chem-Impex), Gentamicin sulfate (Cat. No. G4918, Sigma Aldrich).
# Microbial strains. Enterococcus faecalis DSM 2570, Klebsiella pneumoniae DSM 26371, Acinetobacter baumannii DSM 105126, Enterobacter cloacae 3MRGN (clinical bronchial aspirate isolate).
# Culture media and equipment. BBL™ Mueller Hinton Broth 2 (Lot. BCBW1143, Cat. No. 70192, Sigma); Trypcase Soy Blood-agar plates (Cat. No. 43001, Biomérieux); Cryoinstant (contains 15% glycerol; Cat. No. 822070ZA, VWR International); GasPak™ EZ Standard Incubation Container (Cat. No. 260671, Becton Dickinson); GasPak™ EZ Campy Container System Sachets (Cat. No. 260680, Becton Dickinson); 96-well deep well plate, 1 mL (Cat. No. 0030506.200, Eppendorf); Plate lid (Cat. No. 0030131.525, Eppendorf); 96-well plate, F-bottom (Cat. No. 260860, Nunc); Incubator (Sartorius Certomat BS-1); Laminar flow (Heraeus HS12); UV/VIS meter (Perkin Elmer Lambda Bio+); Platereader (Tecan Infinite M200 Pro).
# Compound preparation. Compounds were prepared in MH2 media at a concentration of 5 mM and stored at 4° C. For testing, solutions of 128 μM were prepared in MH2, for tests against E. faecalis a solution of 512 μM was prepared. Out of these working solutions, 400 μL was transferred to wells in the first column of 96-well deep well plates. Each compound was transferred in triplicate. Plates were previously filled with 200 μL of MH2 media in all wells except for the wells in the first column. After compound and antibiotic addition, the compounds were serial two-fold diluted by transferring 200 μL from the first to the second column, then from the second to the third column and so on. Finally, 200 μL was removed from the last column.
# Inoculum preparation. Microorganisms used were all revived from 15% glycerol storage in Croinstant tubes at −28° C. by plating them on blood agar plates. A. baumanni, and E. cloacae were grown aerobically at 37° C., E. faecalis was grown microaerophilically at 37° C., and K. pneumoniae was grown aerobically at 37° C. Plates were stored at 4° C. for up to two weeks, after which new plates were prepared from −28° C. A single colony was inoculated in MH2 media and grown at 37° C. and 200 rpm to an optical density (measured by UV/Vis spectroscopy) of 0.6-0.8 at 600 nm. Out of these suspensions, actual inoculums were prepared by diluting them to an optical density of 0.1 in MH2 media. From these inoculums, 200 μL was transferred to each well, resulting in a final compound concentration range of 64 μM-31.3 nM for, K. pneumoniae, A. baumanni, and E. cloacae, and 256 μM-125 nM for E. faecalis. Plates inoculated with E. faecalis were placed inside a GasPak™ Container System with GasPak™ Campy Container System sachets. All plates were incubated at 200 rpm for 18 h under the microorganism culturing conditions mentioned above.
# MIC determination. After 18 h of growth, 200 μL was transferred to a 96-well F-bottom plate. The optical density was determined by a plate reader at 600 nm, with 10 s shaking before reading. Triplicate measurements were averaged, and a growth curve was plotted in Excel. The first column in which the growth reached half the value of maximum growth was determined as the MIC50 value for that particular compound.
# MIC50. The MIC50 of a compound was assigned at which the bacterial growth reached half the value of maximum growth.
row,SMILES,MIC50
1,"NCC[C@H](O)C(=O)N[C@@H]1C[C@H](N)[C@@H](O[C@H]2O[C@H](CN)[C@@H](O)[C@@H](O)[C@H]2O)[C@H](O)[C@H]1O[C@H]1O[C@H](CO)[C@@H](O)[C@H](N)[C@H]1O [ABX3002, 3′Epi-KanaA-AHB]",2 µM
2,"NCCC(O)C(=O)NC1CC(N)C(OC2OC(CN)C(O)C(O)C2O)C(F)C1OC1OC(CO)C(O)C(N)C1O (stereo not drawn) [ABX3005, 3′Epi-KanaA-AHB-F]",1 µM
3,"NCCC(O)C(=O)NC1CC(N)C(OC2OC(CN)C(O)C(O)C2N)C(O)C1OC1OC(CO)C(O)C(N)C1O (centres unmarked) [ABX4001, KanaB-AHB]",0.5 µM
4,"NCC[C@H](O)C(=O)N[C@@H]1CC(N)[C@@H](O[C@H]2OC(CN)[C@@H](O)[C@@H](O)C2N)[C@H](O)C1OC1O[C@H](CO)[C@@H](O)C(N)[C@H]1O (stereo partly drawn) [ABX4002, 3′Epi-KanaB-AHB]",0.5 µM
5,"NCC[C@H](O)C(=O)N[C@@H]1CC(N)[C@@H](O[C@H]2OC(CN)[C@@H](O)[C@@H](O)C2N)[C@H](F)C1OC1O[C@H](CO)[C@@H](O)C(N)[C@H]1O (stereo partly drawn) [ABX4003, 3′Epi-KanaB-AHB-F]",0.5 µM
6,"N=C(N)NC1[C@@H](O)C(OC2[C@@H](F)[C@H](O[C@H]3OC(CN)[C@@H](O)[C@H](O)C3N)C(N)C[C@H]2NC(=O)[C@@H](O)CCN)O[C@H](CO)[C@H]1O (stereo partly drawn) [ABX4004, 3′epi-KanaB-AHB-F-Gua]",0.125 µM
7,"N=C(N)N[C@@H]1[C@@H](O)[C@@H](O[C@@H]2[C@@H](O)[C@H](O[C@H]3O[C@H](CN)[C@@H](O)[C@@H](O)[C@H]3N)[C@@H](N)C[C@H]2NC(=O)[C@@H](O)CCN)O[C@H](CO)[C@H]1O [ABX4005, 3′Epi-KanaB-AHB-Gua]",0.5 µM
8,"NCCC(O)C(=O)NC1CC(N)C(OC2OC(CN)C(O)C(O)C2N)C(F)C1OC1OC(CO)C(O)C(N)C1O (centres unmarked) [ABX4007, KanaB-AHB-F]",0.5 µM
9,"N=C(N)NC1[C@@H](O)C(OC2[C@@H](O)[C@H](O[C@H]3OC(CN)[C@@H](O)[C@H](O)C3N)C(N)C[C@H]2NC(=O)[C@@H](O)CCN)O[C@H](CO)[C@H]1O (some centres unmarked) [ABX4009, KanaB-AHB-Gua]",0.5 µM
10,"NCC[C@H](O)C(=O)N[C@@H]1CC(N)[C@@H](O[C@H]2OC(CN)[C@@H](O)CC2N)[C@H](O)C1OC1O[C@H](CO)[C@@H](O)C(N)[C@H]1O (some centres unmarked) [ABX5004, Tobra-AHB]",0.5 µM
11,"N=C(N)NC1[C@@H](O)C(OC2[C@@H](O)[C@H](O[C@H]3OC(CN)[C@@H](O)CC3N)C(N)C[C@H]2NC(=O)[C@@H](O)CCN)O[C@H](CO)[C@H]1O (some centres unmarked) [ABX5005, Tobra-AHB-Gua]",0.25 µM
12,"NCC[C@H](O)C(=O)N[C@@H]1CC(N)[C@@H](O[C@H]2OC(CN)[C@@H](O)CC2N)[C@H](F)C1OC1O[C@H](CO)[C@@H](O)C(N)[C@H]1O (some centres unmarked) [ABX5024, Tobra-AHB-F]",0.125 µM

# Same assay, conditions: Acinetobacter baumannii, DSM105126, read-out: MIC 50
row,SMILES,MIC50
1,"N=C(N)NC1[C@@H](O)C(OC2[C@@H](F)[C@H](O[C@H]3OC(CN)[C@@H](O)[C@H](O)C3O)C(N)C[C@H]2NC(=O)[C@@H](O)CCN)O[C@H](CO)[C@H]1O (stereo partly drawn) [ABX3003, 3′epi-KanaA-AHB-F-Gua]",0.0625 to 0.125 µM
2,"N=C(N)NC1[C@@H](O)C(OC2[C@@H](F)[C@H](O[C@H]3OC(CN)[C@@H](O)[C@H](O)C3N)C(N)C[C@H]2NC(=O)[C@@H](O)CCN)O[C@H](CO)[C@H]1O (some centres unmarked) [ABX4006, KanaB-AHB-F-Gua]",0.125 µM
3,"N=C(N)NC1C(O)[C@@H](CO)OC(OC2C(F)[C@H](O[C@H]3OC(CN)[C@@H](O)CC3N)C(N)C[C@H]2NC(=O)[C@@H](O)CCN)[C@@H]1O (some centres unmarked) [ABX5006, Tobra-AHB-F-Gua]",0.0625 µM
4,"N=C(NCCN)NC1C(O)[C@@H](CO)OC(OC2C(F)[C@H](O[C@H]3OC(CN)[C@@H](O)CC3N)C(N)C[C@H]2NC(=O)[C@@H](O)CCN)[C@@H]1O (some centres unmarked) [ABX5020, Tobra-AHB-F-Gua-2-amino-ethyl]",0.0625 to 0.125 µM
5,"CC(C)(C)CCNC(=N)NC1[C@@H](O)C(OC2[C@@H](F)[C@H](O[C@H]3OC(CN)[C@@H](O)CC3N)C(N)C[C@H]2NC(=O)[C@@H](O)CCN)O[C@H](CO)[C@H]1O (some centres unmarked) [ABX5025, Tobra-AHB-F-Gua 2-tBu-ethyl]",0.25 µM
6,"N=C(NC[C@@H]1CCCN1)NC1[C@@H](O)C(OC2[C@@H](F)[C@H](O[C@H]3OC(CN)[C@@H](O)CC3N)C(N)C[C@H]2NC(=O)[C@@H](O)CCN)O[C@H](CO)[C@H]1O (stereo partly drawn) [ABX5026, Tobra-AHB-F-Gua (S) pyrrolidine-2-yl-methyl]",0.0312 to 0.0625 µM
7,"N=C(NCC1CC1)NC1[C@@H](O)C(OC2[C@@H](F)[C@H](O[C@H]3OC(CN)[C@@H](O)CC3N)C(N)C[C@H]2NC(=O)[C@@H](O)CCN)O[C@H](CO)[C@H]1O (some centres unmarked) [ABX5027, Tobra-AHB-F-Gua cyclopropylmethyl]",0.125 µM
8,"N=C(NCCO)NC1[C@@H](O)C(OC2[C@@H](F)[C@H](O[C@H]3OC(CN)[C@@H](O)CC3N)C(N)C[C@H]2NC(=O)[C@@H](O)CCN)O[C@H](CO)[C@H]1O (some centres unmarked) [ABX5029, Tobra-AHB-F-Gua 2-hydroxy-ethyl]",0.0625 µM
9,"N=C(NCCCN)NC1[C@@H](O)C(OC2[C@@H](F)[C@H](O[C@H]3OC(CN)[C@@H](O)CC3N)C(N)C[C@H]2NC(=O)[C@@H](O)CCN)O[C@H](CO)[C@H]1O (some centres unmarked) [ABX5030, Tobra-AHB-F-Gua-3-amino-propyl]",0.0312 to 0.0625 µM
10,"CNCCNC(=N)NC1[C@@H](O)C(OC2[C@@H](F)[C@H](O[C@H]3OC(CN)[C@@H](O)CC3N)C(N)C[C@H]2NC(=O)[C@@H](O)CCN)O[C@H](CO)[C@H]1O (some centres unmarked) [ABX5038, Tobra-AHB-F-Gua 2-(methylamino)ethyl]",0.0625 to 0.125 µM
11,"N=C(NC[C@@H]1CCNC1)NC1[C@@H](O)C(OC2[C@@H](F)[C@H](O[C@H]3OC(CN)[C@@H](O)CC3N)C(N)C[C@H]2NC(=O)[C@@H](O)CCN)O[C@H](CO)[C@H]1O (stereo partly drawn) [ABX5039, Tobra-AHB-F-Gua (R) pyrrolidine-3-ylmethyl]",0.0625 µM
12,"N=C(NC[C@@H]1CNCCO1)NC1[C@@H](O)C(OC2[C@@H](F)[C@H](O[C@H]3OC(CN)[C@@H](O)CC3N)C(N)C[C@H]2NC(=O)[C@@H](O)CCN)O[C@H](CO)[C@H]1O (stereo partly drawn) [ABX5040, Tobra-AHB-F-Gua (S) morpholin-2-yl methyl]",0.0625 to 0.125 µM
13,"N=C(NCCCO)NC1[C@@H](O)C(OC2[C@@H](F)[C@H](O[C@H]3OC(CN)[C@@H](O)CC3N)C(N)C[C@H]2NC(=O)[C@@H](O)CCN)O[C@H](CO)[C@H]1O (some centres unmarked) [ABX5041, Tobra-AHB-F-Gua 3-hydroxy-propyl]",0.25 µM
14,"N=C(NC[C@H]1CCNC1)NC1[C@@H](O)C(OC2[C@@H](F)[C@H](O[C@H]3OC(CN)[C@@H](O)CC3N)C(N)C[C@H]2NC(=O)[C@@H](O)CCN)O[C@H](CO)[C@H]1O (stereo partly drawn) [ABX5042, Tobra-AHB-F-Gua (S) pyrrolidine-3-ylmethyl]",0.0625 µM
15,"N=C(NC[C@H]1CNCCO1)NC1[C@@H](O)C(OC2[C@@H](F)[C@H](O[C@H]3OC(CN)[C@@H](O)CC3N)C(N)C[C@H]2NC(=O)[C@@H](O)CCN)O[C@H](CO)[C@H]1O (stereo partly drawn) [ABX5043, Tobra-AHB-F-Gua (R) morpholin-2-yl methyl]",0.0625 to 0.125 µM
16,"N=C(N)NC1[C@@H](O)C(OC2[C@@H](F)[C@H](O[C@H]3OC(CNCCO)[C@@H](O)CC3N)C(N)C[C@H]2NC(=O)[C@@H](O)CCN)O[C@H](CO)[C@H]1O (some centres unmarked) [ABX5045, 6N-2-hydroxy-ethyl-Tobra-AHB-F-Gua]",0.5 µM
17,"N=C(NCC1CCCO1)NC1[C@@H](O)C(OC2[C@@H](F)[C@H](O[C@H]3OC(CN)[C@@H](O)CC3N)C(N)C[C@H]2NC(=O)[C@@H](O)CCN)O[C@H](CO)[C@H]1O (some centres unmarked) [ABX5046, Tobra-AHB-F-Gua tetrahydrofuran-2-yl methyl]",0.25 µM
